Test results from US9273006B2, “Anabolic compounds for treating and preventing bone loss diseases” (SYDDANSK UNIVERSITET, priority 2012, dated 2016).
Like-named read-outs stand apart in the source and are kept apart here.

Test system: hMSC-TERT
Conditions: 6 days after induction, hMSC-TERT
[1] = 1 μM inhibitor in osteogenic inducing media
[2] = 10 μM inhibitor in osteogenic inducing media

CCCCCCCCCCCCCCCC(=O)OC(CC(=O)O)C[N+](C)(C)C.[Cl-] (racemic) [Palmitoyl-DL-carnitine Cl]
Relative ALP activity [1]: 0.9966
Relative ALP activity [2]: 0.9612

Nc1ncc2[nH]cnc2n1 [2-Aminopurine]
Relative ALP activity [1]: 1.017
Relative ALP activity [2]: 0.6855

Nc1ncnc2c1c(I)cn2[C@@H]1O[C@H](CO)[C@@H](O)[C@H]1O [5-Iodotubercidin]
Relative ALP activity [1]: 1.035
Relative ALP activity [2]: Toxic

N#CC(C#N)=Cc1ccc([N+](=O)[O-])c(O)c1 [AG-126]
Relative ALP activity [1]: 0.9053
Relative ALP activity [2]: 1.156

N#CC(=Cc1ccc2[nH]ccc2c1)C(N)=C(C#N)C#N [AG-370]
Relative ALP activity [1]: 1.057
Relative ALP activity [2]: 0.7902

N#C/C(=C/c1ccc(O)c(O)c1)C(=O)NCc1ccccc1 [AG-490]
Relative ALP activity [1]: 0.9657
Relative ALP activity [2]: 0.3482

N#C/C(=C\c1ccc(O)c(O)c1)C(=O)Nc1ccccc1 [AG-494]
Relative ALP activity [1]: 0.8788
Relative ALP activity [2]: 0.33

COc1cc(/C=C(\C#N)C(N)=O)cc(CSc2nc3ccccc3s2)c1O [AG-825]
Relative ALP activity [1]: 0.8754
Relative ALP activity [2]: 1.056

CC(C)(C)c1cc(/C=C(\C#N)C(N)=S)cc(C(C)(C)C)c1O [AG-879]
Relative ALP activity [1]: 0.6801
Relative ALP activity [2]: 0.7467

COc1cc2ncc(-c3ccccc3)nc2cc1OC [AG-1296]
Relative ALP activity [1]: 0.7685
Relative ALP activity [2]: 0.5376

O=c1cc(-c2ccc(O)cc2)oc2cc(O)cc(O)c12 [Apigenin]
Relative ALP activity [1]: 0.9029
Relative ALP activity [2]: 0.4027

Cc1ccc(S(=O)(=O)/C=C/C#N)cc1 [BAY 11-7082]
Relative ALP activity [1]: 0.9356
Relative ALP activity [2]: Toxic

O=C(O)c1ccc2nc(-c3ccccc3)c(-c3ccccc3)nc2c1 [BML-257]
Relative ALP activity [1]: 0.8443
Relative ALP activity [2]: 0.7884

CC(C)c1cnc(NC(=O)Cc2ccccc2)s1 [BML-259]
Relative ALP activity [1]: 1.001
Relative ALP activity [2]: 0.7259

OC[C@H]1O[C@@H](n2cnc3cc(Cl)c(Cl)cc32)[C@H](O)[C@@H]1O [DRB]
Relative ALP activity [1]: 0.9718
Relative ALP activity [2]: 0.5043

O=c1c(-c2ccc(O)cc2)coc2cc(O)ccc12 [Daidzein]
Relative ALP activity [1]: 1.14
Relative ALP activity [2]: 1.025

COc1c(C=O)c(O)cc2c1C(=O)c1ccccc1C2=O [Damnacanthal]
Relative ALP activity [1]: 0.8711
Relative ALP activity [2]: 0.3273

COC(=O)/C=C/c1cc(O)ccc1O [Erbstatin analog]
Relative ALP activity [1]: 0.8892
Relative ALP activity [2]: 0.7022

CN(C)CCCn1cc(C2=C(c3c[nH]c4ccccc34)C(=O)NC2=O)c2ccccc21 [GF 109203X]
Relative ALP activity [1]: 0.3532
Relative ALP activity [2]: Toxic

O=C1Nc2ccc(I)cc2/C1=C/c1cc(Br)c(O)c(Br)c1 [GW 5074]
Relative ALP activity [1]: 0.7969
Relative ALP activity [2]: 0.5773

O=c1c(-c2ccc(O)cc2)coc2cc(O)cc(O)c12 [Genistein]
Relative ALP activity [1]: 1.215
Relative ALP activity [2]: 0.7692

CC1CNCCN1S(=O)(=O)c1cccc2cnccc12 (stereo not drawn) [H-7]
Relative ALP activity [1]: 1.087
Relative ALP activity [2]: 0.9015

NCCNS(=O)(=O)c1cccc2cnccc12 [H-9]
Relative ALP activity [1]: 0.9547
Relative ALP activity [2]: 0.9783

O=S(=O)(NCCNC/C=C/c1ccc(Br)cc1)c1cccc2cnccc12 [H-89]
Relative ALP activity [1]: 0.8924
Relative ALP activity [2]: 0.3847

NC(N)=NCCNS(=O)(=O)c1cccc2cnccc12 [HA-1004]
Relative ALP activity [1]: 0.9706
Relative ALP activity [2]: 0.9424

O=S(=O)(c1cccc2cnccc12)N1CCCNCC1 [HA-1077]
Relative ALP activity [1]: 1.02
Relative ALP activity [2]: 0.908

COCc1cc(O)c(O)c(O)c1-c1c(COC)cc(O)c(O)c1O [HBDDE]
Relative ALP activity [1]: 0.8861
Relative ALP activity [2]: 0.7296

O=C(O)c1cc(NCc2cc(O)ccc2O)ccc1O [HDBA]
Relative ALP activity [1]: 0.8708
Relative ALP activity [2]: 0.9836

O=P(O)(O)C(O)c1ccc2ccccc2c1 (stereo not drawn) [HNMPA]
Relative ALP activity [1]: 0.864
Relative ALP activity [2]: 0.8557

Cc1cc(O)c2c(=O)c3c(O)cc(O)c4c5c(O)cc(O)c6c(=O)c7c(O)cc(C)c8c1c2c(c34)c(c78)c65 [Hypericin]
Relative ALP activity [1]: 0.8534

O=C1Nc2ccccc2/C1=C1/Nc2ccccc2C1=O [Indirubin]
Relative ALP activity [1]: 0.3571
Relative ALP activity [2]: 0.18

CN([C@@H](Cc1ccc(OS(=O)(=O)c2cccc3cnccc23)cc1)C(=O)N1CCN(c2ccccc2)CC1)S(=O)(=O)c1cccc2cnccc12 [KN-62]
Relative ALP activity [1]: 0.956
Relative ALP activity [2]: 0.9222

COc1ccc(S(=O)(=O)N(CCO)c2ccccc2CN(C)C/C=C/c2ccc(Cl)cc2)cc1 [KN-93]
Relative ALP activity [1]: 0.7347
Relative ALP activity [2]: 0.6802

O=C1Cc2c([nH]c3ccc(Br)cc23)-c2ccccc2N1 [Kenpaullone]
Relative ALP activity [1]: 0.5044
Relative ALP activity [2]: 0.2055

C/C(O)=C(\C#N)C(=O)Nc1cc(Br)ccc1Br [LFM-A13]
Relative ALP activity [1]: 0.7381
Relative ALP activity [2]: 0.9154

O=c1cc(N2CCOCC2)oc2c(-c3ccccc3)cccc12 [LY 294002]
Relative ALP activity [1]: 0.8628
Relative ALP activity [2]: 0.439

O=C(O)c1cc(N(Cc2ccccc2O)Cc2cc(O)ccc2O)ccc1O [Lavendustin A]
Relative ALP activity [1]: 0.8641
Relative ALP activity [2]: 0.4935

O=S(=O)(c1cccc2c(I)cccc12)N1CCCNCC1 [ML-7]
Relative ALP activity [1]: 1.031
Relative ALP activity [2]: 0.9564

O=S(=O)(c1cccc2c(Cl)cccc12)N1CCCNCC1 [ML-9]
Relative ALP activity [1]: 0.9822
Relative ALP activity [2]: 0.6879

CC(C)n1cnc2c(NCc3ccccc3)nc(NCCO)nc21 [N9-Isopropyl-olomoucine]
Relative ALP activity [1]: 1.128
Relative ALP activity [2]: 0.6666

Cn1cnc2c(NCc3ccccc3)nc(NCCO)nc21 [Olomoucine]
Relative ALP activity [1]: 1.142
Relative ALP activity [2]: 0.5408

COc1cccc(-c2cc(=O)c3ccccc3o2)c1N [PD-98059]
Relative ALP activity [1]: 0.5617
Relative ALP activity [2]: 0.6017

Cc1ccc(-c2nn(C(C)(C)C)c3ncnc(N)c23)cc1 [PP1]
Relative ALP activity [1]: 0.9626
Relative ALP activity [2]: 0.5665

CC(C)(C)n1nc(-c2ccc(Cl)cc2)c2c(N)ncnc21 [PP2]
Relative ALP activity [1]: 0.8276
Relative ALP activity [2]: 0.4269

Oc1cc(O)cc(/C=C/c2ccc(O)c(O)c2)c1 [Piceatannol]
Relative ALP activity [1]: 0.783
Relative ALP activity [2]: 0.4885

O.O.O=c1c(O)c(-c2ccc(O)c(O)c2)oc2cc(O)cc(O)c12 [Quercetin dihydrate]
Relative ALP activity [1]: 1.001
Relative ALP activity [2]: 0.8354

N#C/C(=C\c1cc(Cl)cc(Cl)c1)c1cccnc1 [RG-14620]
Relative ALP activity [1]: 0.8302
Relative ALP activity [2]: 1.024

CO[C@H]1C[C@@H]2CC[C@@H](C)[C@@](O)(O2)C(=O)C(=O)N2CCCC[C@H]2C(=O)O[C@H]([C@H](C)C[C@@H]2CC[C@@H](O)[C@H](OC)C2)CC(=O)[C@H](C)/C=C(\C)[C@@H](O)[C@@H](OC)C(=O)[C@H](C)C[C@H](C)/C=C/C=C/C=C/1C [Rapamycin]
Relative ALP activity [1]: 0.509
Relative ALP activity [2]: 0.6057

Cn1cc(C2=C(c3cn(CCCSC(=N)N)c4ccccc34)C(=O)NC2=O)c2ccccc21 [Ro 31-8220]
Relative ALP activity [1]: 0.3607
Relative ALP activity [2]: Toxic

CC[C@H](CO)Nc1nc(NCc2ccccc2)c2ncn(C(C)C)c2n1 [Roscovitine]
Relative ALP activity [1]: 0.9865
Relative ALP activity [2]: 0.3918

CC(=O)c1c(O)c(C)c(O)c(Cc2c(O)c3c(c(C(=O)/C=C/c4ccccc4)c2O)OC(C)(C)C=C3)c1O [Rottlerin]
Relative ALP activity [1]: 0.3874
Relative ALP activity [2]: Toxic

Oc1ccc(-c2nc(-c3ccc(F)cc3)c(-c3ccncc3)[nH]2)cc1 [SB-202190]
Relative ALP activity [1]: 0.7708
Relative ALP activity [2]: 0.2703

C[S+]([O-])c1ccc(-c2nc(-c3ccc(F)cc3)c(-c3ccncc3)[nH]2)cc1 (stereo not drawn) [SB-203580]
Relative ALP activity [1]: 0.824
Relative ALP activity [2]: 0.458

Oc1c2ccccc2c2c3c(cccc13)N=N2 [SP 600125]
Relative ALP activity [1]: 0.5978
Relative ALP activity [2]: 0.2913

CC(C)c1cc(/C=C(\C#N)C(=O)NCCCc2ccccc2)cc(C(C)C)c1O [SU1498]
Relative ALP activity [1]: 0.8711
Relative ALP activity [2]: 0.7853

CN(C)c1ccc(/C=C2\C(=O)Nc3ccccc32)cc1 [SU 4312]
Relative ALP activity [1]: 0.7481
Relative ALP activity [2]: 0.5349
